“Also recorded” adds a separate entry of the source.
What was measured:
U-118 MG cells [1] = test: Reactive nitrogen species level (DAF-2 diacetate probe), U-118 MG; format: cell-based; details: 500 µM, 72 h
Experimental: (§1) The BJ (CRL-2522), Caco-2 (HTB-37), PANC-1 (CRL-1469), U-118 MG (HTB-15), SK-MEL-30 (ACC 151), and MDA-MB-231 (HTB-26) cell lines were purchased from ATCC (Manassas, VA, USA) or DSMZ (Braunschweig, GERMANY). Cells were cultured in accordance with manufacturers' recommendations in a DMEM, MEM, or RPMI-1640 (Sigma, Saint Louis, MO, USA; Gibco, Waltham, MA, USA), supplemented with 10% FBS, except for Caco-2 (20%) (Thermo Fisher Scientific, Waltham, MA, USA) and 1% antibiotic mix solution (penicillin, streptomycin; Thermo Fisher Scientific, Waltham, MA, USA) in a humidified atmosphere with 5% CO2 at 37 °C. All cell lines were cultured in T75 cell culture flasks or cell culture dishes to reach 80–90% confluency and seeded at a standard density of 5 × 10^3 cells/0.32 cm^2, except for BJ cells at 2 × 10^3 cells/0.32 cm^2.
(§2) The assay was performed following previously reported method. The cells (BJ, Caco-2, PANC-1, U-118 MG, SK-MEL-30, and MDA-MB-231) were seeded at an established density into 96-well black plates. Measurement of intracellular superoxide, nitric oxide, and free thiol levels were assessed with the use of fluorogenic probes: dihydroethidium (Cayman Chemical, Ann Arbor, MI, USA, #12013), DAF-2 diacetate (Cayman Chemical, Ann Arbor, MI, USA, #85165), and Thiol Tracker Violet (Thermo Scientific, Waltham, MA, USA, #T10095). After compound treatment (72 h), the cells were probed at a final concentration of 5 µM each for 15 min at 37 °C. Quantifications were taken with a BioTek–Synergy H1 microplate reader, and the results are presented as mean values + SD.

U-118 MG cells [2] = test: Reactive oxygen species level (dihydroethidium probe), U-118 MG; format: cell-based; details: 500 µM, 72 h
Experimental: as §1, §2

MDA-MB-231 cells [3] = test: Reactive nitrogen species level (DAF-2 diacetate probe), MDA-MB-231; format: cell-based, human; details: MDA-MB-231, 500 µM, 72 h
Experimental: as §1
as §2, with “The cells (BJ, Caco-2, PANC-1, U-118 MG, SK-MEL-30, and MDA-MB-231) were seeded at an established density into 96-well black plates.” left out, “After compound treatment (72 h), the cells were probed at a final concentration of 5 µM each for 15 min at 37 °C.” left out

Caco-2 cells = test: Reactive oxygen species level (dihydroethidium probe), Caco-2; format: cell-based, human; details: Caco-2, 500 µM, 72 h
Experimental: as §1, §2

BJ cells [4] = test: Reactive nitrogen species level (DAF-2 diacetate probe), BJ; format: cell-based; details: 500 µM, 72 h
Experimental: as §1
as §2, with “The cells (BJ, Caco-2, PANC-1, U-118 MG, SK-MEL-30, and MDA-MB-231) were seeded at an established density into 96-well black plates.” left out, “After compound treatment (72 h), the cells were probed at a final concentration of 5 µM each for 15 min at 37 °C.” left out

PANC-1 cells = test: Reactive nitrogen species level (DAF-2 diacetate probe), PANC-1; format: cell-based, human; details: PANC-1, 500 µM, 72 h
Experimental: as §1
as §2, with “The cells (BJ, Caco-2, PANC-1, U-118 MG, SK-MEL-30, and MDA-MB-231) were seeded at an established density into 96-well black plates.” left out, “After compound treatment (72 h), the cells were probed at a final concentration of 5 µM each for 15 min at 37 °C.” left out

MDA-MB-231 cells [5] = test: Reactive oxygen species level (dihydroethidium probe), MDA-MB-231; format: cell-based, human; details: MDA-MB-231, 500 µM, 72 h
Experimental: as §1, §2

BJ cells [6] = test: Reactive oxygen species level (dihydroethidium probe), BJ; format: cell-based; details: 500 µM, 72 h
Experimental: as §1, §2

[7] = test system: all cell lines tested (BJ, Caco-2, PANC-1, U-118 MG, SK-MEL-30, MDA-MB-231); test: Reduced glutathione level (Thiol Tracker Violet probe), all cell lines tested; format: cell-based; details: 500 µM, 72 h
Experimental: as §1
as §2, with “The cells (BJ, Caco-2, PANC-1, U-118 MG, SK-MEL-30, and MDA-MB-231) were seeded at an established density into 96-well black plates.” left out, “After compound treatment (72 h), the cells were probed at a final concentration of 5 µM each for 15 min at 37 °C.” left out

CC1SC(NC2CCCC2)=NC1=O (centres unmarked) [Compound 3a, 2-(cyclopentylamino)-5-methylthiazol-4(5H)-one]
level of reactive nitrogen species (RNS) (U-118 MG cells [1]): increase | level of reactive oxygen species (ROS) (U-118 MG cells [2]): high increase | level of reactive nitrogen species (RNS) (MDA-MB-231 cells [3]): increase

CCC1SC(NC2CCCC2)=NC1=O (centres unmarked) [Compound 3b, 2-(cyclopentylamino)-5-ethylthiazol-4(5H)-one]
level of reactive oxygen species (ROS) (U-118 MG cells [2]): high increase | level of reactive oxygen species (ROS) (Caco-2 cells): high increase | level of reactive nitrogen species (RNS) (BJ cells [4]): increase

CCCC1SC(NC2CCCC2)=NC1=O (centres unmarked) [Compound 3c, 2-(cyclopentylamino)-5-propylthiazol-4(5H)-one]
level of reactive oxygen species (ROS) (Caco-2 cells): high increase

CC(C)C1SC(NC2CCCC2)=NC1=O (centres unmarked) [Compound 3d, 2-(cyclopentylamino)-5-isopropylthiazol-4(5H)-one]
level of reactive nitrogen species (RNS) (U-118 MG cells [1]): increase

CC1(C)SC(NC2CCCC2)=NC1=O [Compound 3e, 2-(cyclopentylamino)-5,5-dimethylthiazol-4(5H)-one]
level of reactive oxygen species (ROS) (U-118 MG cells [2]): high increase | level of reactive nitrogen species (RNS) (PANC-1 cells): increase | level of reactive oxygen species (ROS) (Caco-2 cells): high increase

O=C1N=C(NC2CCCC2)SC1c1ccc(Br)cc1 (centres unmarked) [Compound 3g, 2-(cyclopentylamino)-5-(4-bromophenyl)thiazol-4(5H)-one]
level of reactive oxygen species (ROS) (MDA-MB-231 cells [5]): increase | level of reactive oxygen species (ROS) (BJ cells [6]): increase | level of reduced glutathione [7]: low level; also recorded: especially strong reduction | level of reactive oxygen species (ROS) (Caco-2 cells): high increase

O=C1N=C(NC2CCCC2)SC12CCCCC2 [Compound 3h, 2-(cyclopentylamino)-1-thia-3-azaspiro[4.5]dec-2-en-4-one]
level of reactive oxygen species (ROS) (MDA-MB-231 cells [5]): increase | level of reactive nitrogen species (RNS) (U-118 MG cells [1]): increase | level of reactive oxygen species (ROS) (BJ cells [6]): increase | level of reactive oxygen species (ROS) (U-118 MG cells [2]): high increase

O=C1N=C(NC2CCCC2)SC12CCC2 [Compound 3i, 6-(cyclopentylamino)-5-thia-7-azaspiro[3.4]oct-6-en-8-one]
level of reactive oxygen species (ROS) (MDA-MB-231 cells [5]): increase | level of reactive oxygen species (ROS) (BJ cells [6]): increase | level of reactive oxygen species (ROS) (U-118 MG cells [2]): high increase | level of reactive oxygen species (ROS) (Caco-2 cells): high increase
